# Reference: ChEMBL document CHEMBL1152070, “-cyano-substituted analogoues of decarboxylated S-adenosylmethionine as enzyme activated, irreversible inhibitors of S-adenosylmethionine decarboxylase” (Bioorg Med Chem Lett, 1993)
# Columns and labels:
# [1] = target: T1, S-adenosylmethionine decarboxylase proenzyme (Homo sapiens, UniProt P17707); assay: Compound was evaluated to inactivate the human AdoMet-DC
# T1 sequence (P17707 whole entry): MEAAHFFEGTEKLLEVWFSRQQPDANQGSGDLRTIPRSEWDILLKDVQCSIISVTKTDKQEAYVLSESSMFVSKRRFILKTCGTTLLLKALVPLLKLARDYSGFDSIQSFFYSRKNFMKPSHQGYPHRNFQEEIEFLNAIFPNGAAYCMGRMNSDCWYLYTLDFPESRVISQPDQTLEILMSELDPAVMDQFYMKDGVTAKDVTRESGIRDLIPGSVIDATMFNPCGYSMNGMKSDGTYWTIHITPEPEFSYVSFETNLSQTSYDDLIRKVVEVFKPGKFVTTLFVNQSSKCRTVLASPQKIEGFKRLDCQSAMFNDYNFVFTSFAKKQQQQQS
# [2] = target: T2, S-adenosylmethionine decarboxylase proenzyme (Homo sapiens) (UniProt P17707); assay: Compound was evaluated for Enzyme kinetic inactivation constant: Kinact for S-Adenosyl-methionine decarboxylase (AdoMet-DC) enzyme
# T2 sequence (whole entry): T1 sequence (P17707 whole entry)
Ki [1] [µM],K inact [2] [min⁻¹],K inact ([2]; Escherichia coli) [min⁻¹],Compound
247,0.29,0.06,C[S+](CCC(N)C#N)C[C@H]1O[C@@H](n2cnc3c(N)ncnc32)[C@H](O)[C@@H]1O (stereo not given in full)
7.2,0.03,–,C[S+](CCCC(N)C#N)C[C@H]1O[C@@H](n2cnc3c(N)ncnc32)[C@H](O)[C@@H]1O (stereo not given in full)
